Data published in patent US20250084056A1, “SUBSTITUTED OXOISOINDOLINYL PIPERIDINE-2,6-DIONE COMPOUNDS” (BRISTOL-MYERS SQUIBB COMPANY, priority 2023, published 2025).

Columns and labels:
Assay type in all cases: cell-based
[1] = test system: Phospho-Rb (Ser807/811); test: Phospho-Retinoblastoma (pRB) Cellular Assay; conditions: Homo sapiens, OVCAR-3, NIH OVCAR3 cells, 24 hours; for IC50: concentration giving 50% response; for Emax: maximum response, reference compound at 10 μM = 100%, read-out: pRB Ymax
Method: Phospho-Retinoblastoma (pRB) Cellular Assay
NIH OVCAR3 (HTB-161, American Type Culture Collection, Manassas VA) cells were grown up to passage 10 in culture media made up of RPMI (11835-030 Gibco, Grand Island NY), 20% HI FBS (16140-071, Gibco, Grand Island NY), and 0.01 mg/mL insulin from bovine pancreas (I6634-1G, Sigma Aldrich, St. Louis, MO).
The cells were seeded in a 384-well CulturPlate (6007688, Perkin Elmer, Waltham MA) at a density of 10,000 cells/well in 20 μL of the above culture media and incubated overnight at 37° C. and 5% CO2.
The next day, cells were treated using an Echo 650 (Beckman Coulter, Indianapolis IN) acoustic dispenser with 40 nL of compounds dissolved in DMSO at the appropriate serial dilutions (10 mM to […]). Cells were then incubated for 24 hours as above.
After 24 hours elapsed, media was removed from each well and shortly after 20 μL of the following mix was added: 12 μL deionized water, 4 μL lysis buffer, 4 μL of reconstituted antibody mix, and 1:100 phosphatase inhibitor. These components belong to the Phospho-Rb (Ser807/811) Cellular Kit (64RBS807PEY, Perkin Elmer, Waltham MA).
Plates were sealed and incubated away from light at room temperature for at least 4 hours before reading them on an EnVision plate reader (Perkin Elmer, Waltham MA) according to the kit manufacturer's protocol. The reference compound, N-(5-{[(5-tert-butyl-1,3-oxazol-2-yl)methyl]sulfanyl}-1,3-thiazol-2-yl)piperidine-4-carboxamide, at 10 μM was used to define 100% response. Assay results for each compound were reported as IC50, the concentration giving 50% response, and Ymax, the maximum response observed with the compound.

[2] = target: GSPT1 (Homo sapiens, UniProt P15170+Q96SW2); test: GSPT1 Cellular Degradation Assay (DF15-GSPT1-ePL); design: expressed in transfected cells; conditions: DF15-GSPT1-ePL cells, 20 hours
Chain of GSPT1 (P15170 whole entry, the tested form may be a part): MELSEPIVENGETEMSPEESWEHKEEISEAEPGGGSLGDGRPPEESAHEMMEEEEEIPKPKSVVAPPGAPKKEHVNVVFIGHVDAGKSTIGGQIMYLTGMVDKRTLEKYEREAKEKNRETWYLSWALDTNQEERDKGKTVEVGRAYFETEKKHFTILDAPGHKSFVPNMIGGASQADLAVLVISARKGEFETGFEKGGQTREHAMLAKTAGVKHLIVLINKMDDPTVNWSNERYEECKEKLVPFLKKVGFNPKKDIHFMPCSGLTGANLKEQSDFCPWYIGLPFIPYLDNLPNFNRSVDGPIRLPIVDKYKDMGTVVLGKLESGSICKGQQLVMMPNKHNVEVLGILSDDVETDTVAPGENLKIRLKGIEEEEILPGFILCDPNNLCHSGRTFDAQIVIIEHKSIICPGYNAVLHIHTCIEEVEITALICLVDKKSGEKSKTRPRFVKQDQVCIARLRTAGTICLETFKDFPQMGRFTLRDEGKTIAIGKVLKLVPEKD
Chain of GSPT1 (Q96SW2 whole entry, the tested form may be a part): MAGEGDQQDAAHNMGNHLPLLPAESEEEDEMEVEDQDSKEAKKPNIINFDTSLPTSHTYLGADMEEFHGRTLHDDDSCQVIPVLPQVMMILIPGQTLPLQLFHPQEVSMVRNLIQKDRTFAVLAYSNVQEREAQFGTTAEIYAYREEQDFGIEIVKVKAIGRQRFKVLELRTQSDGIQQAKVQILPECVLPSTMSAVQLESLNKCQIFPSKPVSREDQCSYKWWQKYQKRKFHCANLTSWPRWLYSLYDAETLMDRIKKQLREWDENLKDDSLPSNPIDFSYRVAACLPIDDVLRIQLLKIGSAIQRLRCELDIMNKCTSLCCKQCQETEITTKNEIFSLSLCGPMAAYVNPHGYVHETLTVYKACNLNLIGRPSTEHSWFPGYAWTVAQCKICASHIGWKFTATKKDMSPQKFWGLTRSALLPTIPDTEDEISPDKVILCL
Chain of GSPT1 (Q16531 whole entry partner, the tested form may be a part): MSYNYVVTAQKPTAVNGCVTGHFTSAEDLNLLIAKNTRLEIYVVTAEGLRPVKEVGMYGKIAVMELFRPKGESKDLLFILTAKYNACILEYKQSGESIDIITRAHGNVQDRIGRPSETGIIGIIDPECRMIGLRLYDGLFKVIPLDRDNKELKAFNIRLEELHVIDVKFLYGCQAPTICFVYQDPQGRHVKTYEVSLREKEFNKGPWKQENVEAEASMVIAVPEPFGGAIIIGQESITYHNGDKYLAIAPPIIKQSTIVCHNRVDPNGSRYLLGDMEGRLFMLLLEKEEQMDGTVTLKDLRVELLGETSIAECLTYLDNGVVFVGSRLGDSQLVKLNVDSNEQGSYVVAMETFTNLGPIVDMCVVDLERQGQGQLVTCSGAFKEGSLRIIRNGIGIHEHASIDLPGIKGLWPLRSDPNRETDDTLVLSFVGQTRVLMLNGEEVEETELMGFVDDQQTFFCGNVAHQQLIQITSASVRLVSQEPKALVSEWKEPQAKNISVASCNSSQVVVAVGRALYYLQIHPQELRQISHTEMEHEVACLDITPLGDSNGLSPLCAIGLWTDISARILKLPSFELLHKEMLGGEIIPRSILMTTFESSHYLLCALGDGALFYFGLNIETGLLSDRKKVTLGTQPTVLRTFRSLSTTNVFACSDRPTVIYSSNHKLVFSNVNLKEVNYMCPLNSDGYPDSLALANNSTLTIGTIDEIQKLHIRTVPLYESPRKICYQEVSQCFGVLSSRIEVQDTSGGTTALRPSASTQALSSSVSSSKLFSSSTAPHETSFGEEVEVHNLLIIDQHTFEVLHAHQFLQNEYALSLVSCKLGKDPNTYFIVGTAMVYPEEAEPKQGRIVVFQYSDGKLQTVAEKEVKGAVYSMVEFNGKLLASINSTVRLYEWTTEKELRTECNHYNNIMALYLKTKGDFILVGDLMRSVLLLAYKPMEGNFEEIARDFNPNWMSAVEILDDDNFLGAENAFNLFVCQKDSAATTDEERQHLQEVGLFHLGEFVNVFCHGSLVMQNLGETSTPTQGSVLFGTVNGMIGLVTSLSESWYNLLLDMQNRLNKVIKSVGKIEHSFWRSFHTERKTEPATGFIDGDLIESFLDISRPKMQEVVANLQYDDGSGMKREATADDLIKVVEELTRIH
From the text: DF15-GSPT1-ePL was used for intracellular GSPT1 protein degradation detection in form of chemiluminescent signal, which was built on a human DF15 cell line (CVCL_Y429) with conditional co-expression of chimeric GSPT1 (target) and ePL/donor (enhanced ProLabel® by DiscoverX for enzyme fragment complementation with donor-acceptor pairing). The cells used the culture medium in two arrangements for assay and maintenance. During assay, it used Core-RPMI 1640 medium with 10% Fetal Bovine Serum (Heat Inactivated) and 1× Penicillin/Streptomycin; and during passage maintenance, used added ingredients: 0.1 mM NEAA, 1 mM sodium pyruvate, 25 mM Hepes, 0.1% Pluronic F-68, 1× Glutamin, 4 μg/mL Blasticidin (selection agent). Detection was performed on a 1536 well tissue culture plate (Corning #3727) with cells seeded in 3.5 μL core-RPMI 1640 at density of 0.25 million/mL after the pre-titrated test compounds in DMSO on ECHO plate were dispensed onto the assay plate by use of ECHO (liquid handing system via acoustic energy from Labcyte). Assay incubation lasted 20 hours in 37° C. incubator with 5% CO2; then followed by 30 minutes of plate-cooling at room temperature; then detection-reagent-mix was added in 3.5 μL/well with pre-defined proportion of enzyme acceptor, substrate, and lysis buffer. Plate signal reading for luminescence on an EnVision plate reader (PerkinElmer) was conducted after 60 minutes of former step at room temperature. Raw data was collected and processed with Dotmatics (data analyzer) for test compound's potency values. The reference compound, 3-[5-(3,6-dimethoxyisoquinolin-1-yl)-1-oxo-2,3-dihydro-1H-isoindol-2-yl]piperidine-2,6-dione, at […] was used to define 75% response. Assay results for each compound were reported as DC50, the concentration giving 50% response, and Dmax, the maximum response observed with the compound.

[3] = target: Cyclin E1 (Homo sapiens, UniProt P24864+Q96SW2); test: Cyclin E1 Cellular Degradation Assay (MSD); design: endogenous in cells; host or cells: OVCAR3; conditions: for DC50 / Dmax: Cyclin E1 cellular degradation; for Dmax: maximum degradation; for Ratio of GSPT1 DC50/Cyclin E1 DC50: selectivity for degradation of Cyclin E1 over GSPT1
Chain of Cyclin E1 (P24864 whole entry): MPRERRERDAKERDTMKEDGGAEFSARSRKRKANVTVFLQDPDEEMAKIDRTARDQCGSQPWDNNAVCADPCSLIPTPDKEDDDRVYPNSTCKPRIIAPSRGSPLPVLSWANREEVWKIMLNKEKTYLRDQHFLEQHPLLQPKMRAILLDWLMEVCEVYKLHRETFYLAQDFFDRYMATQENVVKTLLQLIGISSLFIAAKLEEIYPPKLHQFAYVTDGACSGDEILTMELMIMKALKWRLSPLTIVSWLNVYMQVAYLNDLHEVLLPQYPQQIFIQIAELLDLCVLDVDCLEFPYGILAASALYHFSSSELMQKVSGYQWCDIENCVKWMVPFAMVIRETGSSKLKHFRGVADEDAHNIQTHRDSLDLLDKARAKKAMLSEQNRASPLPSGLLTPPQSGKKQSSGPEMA
Chain of Cyclin E1 (Q96SW2 whole entry): as the sequence (Q96SW2 whole entry, the tested form may be a part) above
Chain of Cyclin E1 (Q16531 whole entry partner): as the sequence (Q16531 whole entry partner, the tested form may be a part) above
Method: Culturing cells: On Day 0, OVCAR3 cells were plated at 15,000 cells/well in 40 μL of culture medium (RPMI1640, 20% FBS, 0.01 insulin, 1% Anti/Anti) in a 384 well cell culture plate. Cell cultures were incubated for 24 hours at 37° C. and 5% CO2.
Coating MSD plates: On Day 1, rabbit anti-CCNE1 antibody (Abcam ab33911, 1 μg/mL in DPBS, […]) was dispensed to a Meso Scale Discovery plate (MSD L21XA). The MSD plate was spun briefly to ensure the solution coated the bottom of the well and incubated overnight at 4° C. On Day 2, the plate was washed 3 times with TBS +0.2% TWEEN, blocked for 1 hour with 3% MSD Blocker A (MSD R93AA-1, 30 μL/well), then washed again 3 times with TBS+0.2% TWEEN.
Treating and lysing cells: On Day 1, compounds of interest were dispensed into the cell cultures by acoustic dispensing technology. The cell cultures were then spun at 400 g for 4 minutes to disperse the compounds and incubated at 37° C. and 5% CO2 for 24 hours. After incubation, 40 μL of DPBS was added to the cell cultures to dilute the media. All liquid was gently discarded and immediately replaced with 30 μL of lysis buffer (MSD Tris Lysis buffer (MSD R60TX-2), Halt Protease inhibitor (ThermoFisher 78438), Phosphatase Inhibitor II (Sigma-Aldrich P5726), Phosphatase Inhibitor III (Sigma-Aldrich P0044), 0.02M PMSF (Sigma-Aldrich 7626), 0.1% SDS (VWR E719-100ML)). The plate was then sealed, shaken at 300 rpm at room temperature for 5 minutes, and freeze-thawed for optimum cell lysis.
Collecting data: After thawing, 25 μL of lysate was transferred to a coated MSD plate. The plate was then sealed and shaken at 300 rpm overnight in 4° C. On Day 3, the MSD plate was washed 3 times with TBS+0.2% TWEEN. Mouse anti-CCNE1 antibody (Abcam ab238081, 0.5 μg/mL in 1% MSD Blocker A, 10 μL/well) dispensed to the MSD plate, which was then sealed and shaken at room temperature for 3 hours. After the first antibody incubation, the plate was washed 3 times with TBS+0.2% TWEEN, then goat anti-mouse Sulfo-Tag antibody (MSD R32AC, 1 μg/mL in 1% MSD Blocker A, 10 μL/well) was dispensed to the MSD plate. The plate was sealed again and shaken at room temperature for 1 hour, then washed 3 times with TBS+0.2% TWEEN. After the final wash, 35 μL of 1× Read Buffer (MSD R92TC-1) was added to each well and the data was captured using the MSD plate reader. The reference compound, [2-(2,6-dioxopiperidin-3-yl)-4-methoxy-3-oxo-2,3-dihydro-1H-isoindol-5-yl]methyl N-[4-(3,4-difluorophenoxy)phenyl]carbamate, at […] was used to define […]. Assay results for each compound were reported as DC50, the concentration giving 50% response, and Dmax, the maximum response observed with the compound.

SMILES	IC50 [1]	DC50 [2]	Dmax [2]	DC50 [3]	Dmax [3]	Ratio of GSPT1 DC50/Cyclin E1 DC50 [3]	Emax [1]
COc1c(COC(=O)Nc2ccc(Oc3cccc(F)c3)cc2F)ccc2c1C(=O)N(C1CCC(=O)NC1=O)C2 (stereo not shown) [Example 16, [2-(2,6-dioxopiperidin-3-yl)-4-methoxy-3-oxo-2,3-dihydro-1H-isoindol-5-yl]methyl N-[2-fluoro-4-(3-fluorophenoxy)phenyl]carbamate]	130 nM	> 14000 nM	46%	161 nM	107%	>87	105%
COc1c(COC(=O)Nc2ccc(Oc3cccc(F)c3F)cc2F)ccc2c1C(=O)N(C1CCC(=O)NC1=O)C2 (stereo not shown) [Example 22, [2-(2,6-dioxopiperidin-3-yl)-4-methoxy-3-oxo-2,3-dihydro-1H-isoindol-5-yl]methyl N-[4-(2,3-difluorophenoxy)-2-fluorophenyl]carbamate]	263 nM	11400 nM	57%	26 nM	109%	431	97%
COc1c(COC(=O)Nc2ccc(Oc3ccc(F)c(F)c3)cc2F)ccc2c1C(=O)N(C1CCC(=O)NC1=O)C2 (stereo not shown) [Example 23, [2-(2,6-dioxopiperidin-3-yl)-4-methoxy-3-oxo-2,3-dihydro-1H-isoindol-5-yl]methyl N-[4-(3,4-difluorophenoxy)-2-fluorophenyl]carbamate]	158 nM	> 14000 nM	27%	71 nM	105%	>196	97%
COc1c(COC(=O)Nc2ccc(Oc3cc(F)cc(F)c3)cc2F)ccc2c1C(=O)N(C1CCC(=O)NC1=O)C2 (stereo not shown) [Example 24, [2-(2,6-dioxopiperidin-3-yl)-4-methoxy-3-oxo-2,3-dihydro-1H-isoindol-5-yl]methyl N-[4-(3,5-difluorophenoxy)-2-fluorophenyl]carbamate]	229 nM	> 14000 nM	10%	39 nM	107%	>358	105%

The next lines start with results.

IC50 [1]	DC50 [2]	Dmax [2]	DC50 [3]	Dmax [3]	Ratio of GSPT1 DC50/Cyclin E1 DC50 [3]	SMILES	Emax [1]
225 nM	> 14000 nM	15%	447 nM	99%	>31	COc1c(COC(=O)Nc2ccc(Cc3ccc(F)c(F)c3)cc2)ccc2c1C(=O)N(C1CCC(=O)NC1=O)C2 (stereo not shown) [Example 17, [2-(2,6-dioxopiperidin-3-yl)-4-methoxy-3-oxo-2,3-dihydro-1H-isoindol-5-yl]methyl N-{4-[(3,4-difluorophenyl)methyl]phenyl}carbamate]	114%
85 nM	> 14000 nM	13%	89 nM	100%	>157	COc1c(COC(=O)Nc2ccc(Cc3ccc(F)c(F)c3)cc2C)ccc2c1C(=O)N(C1CCC(=O)NC1=O)C2 (stereo not shown) [Example 18, [2-(2,6-dioxopiperidin-3-yl)-4-methoxy-3-oxo-2,3-dihydro-1H-isoindol-5-yl]methyl N-{4-[(3,4-difluorophenyl)methyl]-2-methylphenyl}carbamate]	110%
701 nM	> 14000 nM	9%	146 nM	105%	>96	COc1c(COC(=O)Nc2ccc(Cc3cc(F)c(F)c(F)c3)cc2)ccc2c1C(=O)N(C1CCC(=O)NC1=O)C2 (stereo not shown) [Example 19, [2-(2,6-dioxopiperidin-3-yl)-4-methoxy-3-oxo-2,3-dihydro-1H-isoindol-5-yl]methyl N-{4-[(3,4,5-trifluorophenyl)methyl]phenyl}carbamate]	92%
440 nM	> 14000 nM	11%	96 nM	101%	>146	COc1c(COC(=O)Nc2ccc(Cc3cccc(F)c3)cc2F)ccc2c1C(=O)N(C1CCC(=O)NC1=O)C2 (stereo not shown) [Example 20, [2-(2,6-dioxopiperidin-3-yl)-4-methoxy-3-oxo-2,3-dihydro-1H-isoindol-5-yl]methyl N-{2-fluoro-4-[(3-fluorophenyl)methyl]phenyl}carbamate]	103%
818 nM	> 14000 nM	14%	40 nM	101%	>353	COc1c(COC(=O)Nc2ccc(Cc3ccc(F)c(Cl)c3)cc2)ccc2c1C(=O)N(C1CCC(=O)NC1=O)C2 (stereo not shown) [Example 21, [2-(2,6-dioxopiperidin-3-yl)-4-methoxy-3-oxo-2,3-dihydro-1H-isoindol-5-yl]methyl N-{4-[(3-chloro-4-fluorophenyl)methyl]phenyl}carbamate]	92%
187 nM	> 14000 nM	37%	184 nM	107%	>76	COc1c(COC(=O)Nc2ccc(Oc3cc(F)c(F)c(F)c3)cc2Cl)ccc2c1C(=O)N(C1CCC(=O)NC1=O)C2 (stereo not shown) [Example 25, [2-(2,6-dioxopiperidin-3-yl)-4-methoxy-3-oxo-2,3-dihydro-1H-isoindol-5-yl]methyl N-[2-chloro-4-(3,4,5-trifluorophenoxy)phenyl]carbamate]	96%
